Earlier results, collected in patent US6191117A, “Methods of producing weight loss and treatment of obesity” (priority 2000, dated 2001).
Entries after “also recorded” stand apart in the source; their conditions may differ. Like-named read-outs stand apart in the source and are kept apart here.

Columns and labels:
lateral hypothalamus [1] = conditions: injection into lateral hypothalamus
[2] = system: NMDA receptor glycine site
[3] = system: NMDA receptor glycine site; conditions: bilateral LH injection
[4] = system: strychnine-insensitive glycine-binding site
NMDA receptors [5] = conditions: in vivo
NMDA receptors [6] = system: NMDA receptors
lateral hypothalamus [7] = conditions: rats previously given intrahypothalamic injections
young healthy adults = conditions: acute doses and 2- and 4-week test periods
carbonic anhydrase CA-IV = conditions: compared with acetozolamide
[8] = not given; remark: listed apart in the source
carbonic anhydrase CA-II = conditions: compared with acetozolamide
cerebral GABA = conditions: within three hours of oral administration
seizure patients = conditions: for patients with weight decrease: adjunctive therapy, control 3%
[9] = system: PFH (perifornical hypothalamus)
[10] = system: PVN (paraventricular nucleus)
[11] = injection into LH bilaterally for 8 days
[12] = another study, epileptic patients
[13] = clinical trials on seizure patients

Compound: Cc1onc(O)c1CC(N)C(=O)O (racemic) [AMPA, D,L-α-amino-3-hydroxy-5-methyl-isoxazole proprionic acid]
- eating response on LH injection (lateral hypothalamus [1]): elicit a strong dose-dependent eating response; also recorded: elicited eating in a dose-dependent fashion; also recorded: trigger intense eating; also recorded: quantitatively similar eating responses

Compound: O=C(O)c1cc(O)c2ccc(Cl)cc2n1 [7-CK, 7-chlorokynurenic acid]
- AMPA-elicited eating ([2]; 7-CK 0.1 nmol): suppressed feeding elicited by KA or AMPA; also recorded: virtually blocking it
- KA-elicited eating ([2]; 7-CK 0.1 nmol): suppressed feeding elicited by KA or AMPA; also recorded: suppressed KA-elicited eating
- NMDA-elicited eating ([2]; 7-CK 0.1 nmol): enhanced NMDA-elicited eating
- AMPA-elicited eating ([2]; 7-CK 10 nmol): suppressed eating elicited by AMPA
- KA-elicited eating ([2]; 7-CK 10 nmol): enhancing eating elicited by KA; also recorded: markedly enhanced the KA-elicited response
- NMDA-elicited eating ([2]; 7-CK 10 nmol): blocked NMDA-elicited eating
- NMDA-elicited eating ([2]; LH injection before NMDA, satiated rats, dose not stated (high doses)): blocked
- eating produced by fasting [3]: effectively suppressed eating produced by fasting
- food intake ([4]; into intracerebral ventricles or paraventricular nucleus): dose-dependently increased food intake

Compound: N[C@H](CCCP(=O)(O)O)C(=O)O [D-AP5]
- eating responses elicited by AMPA (NMDA receptors [5]): without affecting
- eating responses elicited by kainic acid (NMDA receptors [5]): without affecting
- reduction of the 10-gram eating response elicited by NMDA (NMDA receptors [5]): 72-90%
- suppression of deprivation-induced eating responses (NMDA receptors [6]; in vivo): ≤ 61%
- suppression of nocturnal eating (NMDA receptors [6]; in vivo): ≤ 40%
- body weight loss (NMDA receptors [6]; [11]): up to 13 grams/day
- reduction in daily food intake (NMDA receptors [6]; [11]): 65%

Compound: N[C@H](CO)C(=O)O [D-serine]
- 7CK induced feeding ([4]; rat, in vivo): dose-dependently antagonized 7CK induced feeding

Compound: C=C(C)[C@H]1CN[C@H](C(=O)O)[C@H]1CC(=O)O [KA, Kainic acid]
- feeding and drinking (lateral hypothalamus [7]): impaired
- eating response on LH injection (lateral hypothalamus [1]): elicit a strong dose-dependent eating response; also recorded: elicited eating in a dose-dependent fashion; also recorded: trigger intense eating
- eating response on LH injection (lateral hypothalamus [1]; listed as kainic acid): quantitatively similar eating responses

Compound: Nc1nnc(-c2cccc(Cl)c2Cl)c(N)n1 [LTG]
- action on sodium channel (sodium channel): blocking the sodium channel
- anorexia and nausea incidence (100 mg and 200 mg, adjunctive therapy and monotherapy): 6-15%
- effect on body weight (12 months or up to 144 weeks): no significant effect on body weight

Compound: CC1(C)O[C@@H]2[C@@H](CO[C@@]3(COS(N)(=O)=O)OC(C)(C)O[C@@H]23)O1 [TPM, 2,3:4,5-DI-O-isolpropylidene-B-D-fructopyranose sulfamate]
- attention and word fluency (young healthy adults): statistically significant declines on measures of attention and word fluency
- inhibition of CA-IV (carbonic anhydrase CA-IV): weaker than that of acetozolamide
- time to peak (TTP) plasma concentrations ([8]; 400 mg dose): about 2 hours
- dose recovered in urine ([8]; 100-mg dose): 81-95%
- linearity of pharmacokinetics ([8]; 200 to 800 mg/day): linear with dose proportional increases in plasma concentration
- route of elimination ([8]; TPM and its metabolites): predominantly renal
- increase of plasma concentrations ([8]; hepatic impairment): 29%
- clearance in hepatically impaired subjects ([8]; hepatically impaired subjects): may be decreased
- extent of metabolism ([8]; in vivo): not extensively metabolized
- metabolites identified in humans ([8]; in vivo): Six metabolites
- renal tubular reabsorption ([8]; in vivo): evidence of renal tubular reabsorption
- routes of metabolite formation ([8]; in vivo): hydroxylation, hydrolysis, and glucuronidation
- plasma levels in moderate or severe renal impairment ([8]; moderate or severe renal impairment): plasma levels are increased
- reduction of clearance ([8]; moderate renal impairment (creatinine clearance 30-69 mL/min/1.73 m^2) vs normal): 42%
- eliminated unchanged in the urine ([8]; of an administered dose): approximately 70%
- absorption ([8]; oral): rapid; also recorded: nearly complete
- elimination half-life ([8]; patients with normal renal function): 20 to 30 h
- dose excreted as unchanged TPM ([8]; predominantly renal elimination): 50-80%
- reduction of clearance ([8]; severe renal impairment (creatinine clearance <30 mL/min/1.73 m^2) vs normal): 54%
- mean plasma concentration half-life ([8]; single or multiple doses): 21 h
- relative bioavailability, effect of food ([8]; tablet): not affected by food
- inhibition of CA-II (carbonic anhydrase CA-II): weaker than that of acetozolamide
- carbonic anhydrase inhibition (carbonic anhydrase): weak carbonic anhydrase inhibitor
- effect on urinary citrate excretion and urinary pH (carbonic anhydrase): reducing urinary citrate excretion and by increasing urinary pH
- action on sodium channel (sodium channel): voltage-sensitive sodium channel blocking action
- brain levels of cerebral GABA (cerebral GABA): acutely increase brain levels of cerebral GABA
- action on GABA (GABA receptor): potentiation of the effects of GABA
- patients with weight decrease (seizure patients; 200-400 mg/day): 9%
- patients with weight decrease (seizure patients; 600-1,000 mg/day): 13%
- weight loss with valproate or valproate plus carbamazepine co-treatment (seizure patients; also treated with valproate, or valproate with carbamazepine): tended to be higher
- amount of weight increase (seizure patients; another study, 2/12 patients): 12-25 pounds
- amount of weight loss (seizure patients; another study, 5/12 patients): 12-42 pounds
- patients with weight increase (seizure patients; [12]): 2/12
- patients with weight loss (seizure patients; [12]): 5/12
- average decline from baseline weight (seizure patients; [13]): 2-8%
- average weight loss (seizure patients; [13]): 2 to 8 kg
- report of anorexia in patients with weight loss (seizure patients; human, in vivo): more likely to report anorexia or loss of appetite
- time to peak of weight loss (seizure patients; human, in vivo): 12-15 months
- body weight after prolonged therapy (seizure patients; prolonged therapy): gradually returning toward pre-topiramate levels
- patients with weight loss, long-term study (seizure patients; treated for up to 2.2 years): 26%
- activity at the kainate/AMPA receptor (kainate/AMPA receptor): antagonizing the kainate/AMPA
- dose dependence of common adverse events (patients with seizures; 200 to 400 mg/day): did not appear to be dose-related
- discontinuation due to adverse events (patients with seizures; 200 to 400 mg/day adjunctive therapy): 11%
- common adverse events, controlled trials (patients with seizures; 200 to 400 mg/day, adults): somnolence, dizziness, ataxia, speech disorders and related speech problems, psychomotor slowing, abnormal vision, difficulty with memory, paresthesia and diplopia
- most common dose-related adverse events (patients with seizures; 200 to 1,000 mg/day): fatigue, nervousness, difficulty with concentration or attention, confusion, depression, anorexia, language problems, anxiety, mood problems, and weight decrease
- course of adverse events (patients with seizures; 200 to 1,000 mg/day, rapid dose titration of 200 mg/day): abated after 4 months of treatment
- renal calculi incidence relative to similar untreated population (patients with seizures; about, expected in a similar, untreated population): 2-4 times
- nonspecific CNS effects occasionally observed (patients with seizures; add-on therapy): dizziness or imbalance, confusion, memory problems, and exacerbation of mood disturbances (i.e., irritability and depression)
- renal calculi (kidney stones) incidence (patients with seizures; adults): 1.5%
- severity of somnolence and fatigue (patients with seizures; clinical trials, early in therapy): generally mild to moderate
- dose dependence of fatigue incidence (patients with seizures; dosages above 400 mg/day): increases at dosages above 400 mg/day
- central nervous system adverse events (patients with seizures; human, in vivo): psychomotor slowing, difficulty with concentration, and speech or language problems, in particular, word-finding difficulty and somnolence and/or fatigue
- correlation of plasma concentrations with adverse events (patients with seizures; human, in vivo): not correlated with the occurrence of adverse events
- dose dependence of somnolence incidence (patients with seizures; human, in vivo): does not appear to be dose-related
- adverse events associated with discontinuing therapy (patients with seizures; increased at dosages above 400 mg/day): somnolence, dizziness, anxiety, difficulty with concentration or attention, fatigue, and paresthesia
- post-marketing adverse experiences (patients with seizures; post-marketing data): hepatic failure, hepatitis, pancreatitis, and renal tubular acidosis
- bound to human plasma proteins (human plasma proteins; 1-250 μg/ml): 13-17%
- plasma protein binding (human plasma proteins; concentration not given): approximately 15%
- activity at the NMDA receptor (NMDA receptor): no effect on the activity of N-methyl-D-aspartate (NMDA)

Compound: NC(=O)N1c2ccccc2C=Cc2ccccc21 [carbamazepine]
- weight gain as monotherapy (seizure patients): associated with weight gain

Compound: NCCc1ccc(O)c(O)c1 [dopamine]
- effect on eating in PFH [9]: feeding-suppressive effects

Compound: CNC[C@H](O)c1ccc(O)c(O)c1 [epinephrine]
- effect on eating in PFH [9]: feeding-suppressive effects

Compound: N[C@@H](CCC(=O)O)C(=O)O [glutamate]
- effect on eating in PFH [9]: relatively ineffective
- autonomic and endocrine effects (PFH injection) ([9]; PFH injections): can produce autonomic and endocrine effects
- eating response on LH injection (lateral hypothalamus [1]): elicit a strong dose-dependent eating response; also recorded: elicited eating in satiated rats
- effect on eating in PVN [10]: relatively ineffective
- autonomic and endocrine effects (PVN injection) ([10]; PVN injections): can produce autonomic and endocrine effects

Compound: NCC(=O)O [glycine]
- block by 7-CK of NMDA-elicited eating, after LH pretreatment with glycine ([2]; LH pretreatment): reversed this block

Compound: NC[C@H](O)c1ccc(O)c(O)c1 [norepinephrine]
- effect on eating in PVN [10]: feeding-stimulatory effects

Compound: CCCC(CCC)C(=O)O [valproate]
- weight gain as monotherapy (seizure patients): associated with weight gain

Compound: NCCCC(=O)O [γ-aminobutyric acid]
- effect on eating in PVN [10]: feeding-stimulatory effects

Compound: neuropeptide Y
- effect on eating in PFH [9]: feeding-stimulatory effects
